According to patent publication US9108958B2, “Selective CCR2 antagonists” (Boehringer Ingelheim International GmbH, priority 2011, dated 2015):

How the values were obtained:
[1] = biological target: T1, CCR2 (Homo sapiens, UniProt P41597); assay: CCR2 receptor membrane binding assay ([125I]MCP-1, THP-1 cell membranes, SPA beads); conditions: THP-1 membranes, [125I]MCP-1, bound radioactivity after 8 h; read-out: hKi [nM](CCR2)
T1 construct: Membranes were prepared from THP-1 cells; endogenous in cells; host or cells: THP-1 (human acute monocytic leukaemia cells), membrane preparation
T1 sequence (P41597 1-360 isoform P41597-2): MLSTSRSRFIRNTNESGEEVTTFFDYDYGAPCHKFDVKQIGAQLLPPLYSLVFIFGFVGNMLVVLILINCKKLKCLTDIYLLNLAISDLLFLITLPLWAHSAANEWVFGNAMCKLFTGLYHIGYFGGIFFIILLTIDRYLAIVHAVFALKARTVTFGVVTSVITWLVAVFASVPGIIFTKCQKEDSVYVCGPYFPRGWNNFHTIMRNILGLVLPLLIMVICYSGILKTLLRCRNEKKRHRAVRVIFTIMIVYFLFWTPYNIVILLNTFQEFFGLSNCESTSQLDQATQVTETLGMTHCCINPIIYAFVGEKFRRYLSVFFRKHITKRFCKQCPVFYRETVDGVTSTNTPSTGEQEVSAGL
Experimental: The above exemplary substances have been tested for binding to CCR2 using a binding assay as outlined herein below:
THP-1 cells (human acute monocytic leukaemia cells) were cultured under standardized conditions at 37° C. and 5% CO2 in a humidified incubator. THP-1 cells were cultivated in RPMI 1640 medium (Gibco 21875) containing 1% MEM-NEAA (Gibso 11140) 2 mM L-glutamine, 1.5 g/L sodium bicarbonate, 4.5 g/L glucose, 10 mM HEPES and 1.0 mM sodium pyruvate, 90%; 10% fetal calf serum (FCS Gibco 10500-064).
Membranes were prepared from THP-1 cells. THP-1 cells were centrifuged at 300×g at 4° C. for 10 min. The cell pellet was resuspendet in Phosphate Buffer Saline (PBS, including 10 μM Pefabloc and a protease inhibitor mix ‘complete’, Boehringer Mannheim (1 tablet/50 ml)), to a concentration of […]. The membrane preparation was performed by disrupting the cells by nitrogen […] (at 50 bar, for 1 h) in a “Nitrogen Bombe” (Parr Instrument). Cell debris was removed by centrifugation (800×g at 4° C., 1 min) The supernatant was centrifuged at 80000×g, 4° C. for 30 min to sediment the cell membranes. Usually 50 mg of protein (Bradford assay) were yielded from 1×10E9 cells. The membranes were resuspendet in 25 mM HEPES, 25 mM MgCl2, 1 mM CaCl2, 10% Glycerine for storage in aliquots at −80° C. in 25 mM HEPES, 25 mM MgCl2, 1 mM CaCl2, 10% Glycerine and stored at −80° C.
(§1) Receptor Membrane Binding Assay:
Perkin Elmer NEX 332 Jod^125 MCP-1, Stock: 2200 Ci/mmol solved in 2000 μl assay buffer, stored at −20° C. THP-1 membrane were adjusted with 25 mM HEPES, pH 7.2; 5 mM MgCl2; 0.5 mM CaCl2; 0.2% BSA assay buffer to a concentration of 2.5 μg/15 μl. Amersham Biosciences PVT-WGA Beads (RPNQ0001) were adjusted with assay buffer to a concentration of 0.24 mg/30 μl. For preparation of the membrane-bead-suspension membranes and beads were incubated for 30 min at RT under rotation (60 rpm) with a ratio of 1:2. Test compounds dissolved in 100% DMSO to a concentration of 10 mM and are further diluted with 100% DMSO to 1 mM. All additional compound dilutions were obtained with assay buffer, final 1% DMSO. Compounds, membrane-bead-suspension and [^125I]MCP-1 (ca. 25000 cpm/10 μl) were incubated. Bound radioactivity was determined by scintillation counter after 8 h. Determination of affinity of test compounds (dissociation constant hKi) is calculated by iterative fitting of experimental data using the “easy sys” program, which is based on law of mass action (Schittkowski K. (1994), Numerische Mathematik, Vol. 68, 129-142).

[2] = biological target: T2, human CCR5 (Homo sapiens, UniProt P51681); assay: CCR5 receptor membrane binding assay ([125I]RANTES, CHO (Gα16) human CCR5 cell membranes, SPA beads); conditions: bound radioactivity after 6 h, read-out: hKi [nM] (CCR5)
T2 construct: expressed in transfected cells; host or cells: CHO cells co-expressing Gα16, under puromycin and zeocin selection; membrane preparation
T2 sequence (P51681 whole entry): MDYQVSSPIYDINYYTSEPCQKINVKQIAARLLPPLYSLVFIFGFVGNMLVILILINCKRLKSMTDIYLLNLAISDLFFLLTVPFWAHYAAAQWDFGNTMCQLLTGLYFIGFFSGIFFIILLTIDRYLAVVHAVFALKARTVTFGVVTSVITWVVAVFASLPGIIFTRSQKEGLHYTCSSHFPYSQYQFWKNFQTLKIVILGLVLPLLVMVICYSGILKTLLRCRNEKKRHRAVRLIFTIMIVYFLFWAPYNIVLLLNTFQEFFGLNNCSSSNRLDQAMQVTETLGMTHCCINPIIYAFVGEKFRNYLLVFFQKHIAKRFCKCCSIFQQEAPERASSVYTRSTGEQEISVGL
Experimental: The above exemplary substances have been tested for binding to CCR5 using a binding assay as outlined herein below:
CHO, (Gα16) human CCR5 cells were cultured under standardized conditions at 37° C. and 5% CO2 in a humidified incubator. CHO (Gα16) human CCR5 cells were cultivated in Ham's F12 (Invitrogen; #31765068) supplemented with 10 μg/ml Puromycin (Invitrogen; #A11139-03), 200 μg/ml Zeocin (Invitrogen; #45-0003) and 10% FCS (Gibco; #10500-064).
Membranes were prepared from CHO (Gα16) human CCR5 cells. Cells were cultured on […] plates (Nunc; #166508) 2-3 days before membrane preparation (usually 80-100 plates to obtain 80 mg protein).
Cells were scraped off the plates with a big scraper and washed with 2×5 ml ice cold Phosphate Buffer Saline (PBS; Invitrogen; #14040-174). Cell suspension was collected in a glass bottle (on ice). Cell suspension was harvested at 1400 rpm and 4° C. for 10 min and washed in PBS. Cell pellet was resuspended in 40 ml PBS with protease inhibitor mix ‘complete’ (Roche; #11873580001; 1 tablet/50 ml).
For gentle cell disruption the membrane preparation was performed by using a homogenizer (potter). Cells were homogenized for 5-10 min.
Membranes were centrifuged at 1000 rpm and 4° C. for 5 min Supernatant (=membrane) was harvested in a new falcon tube and remaining cell pellet homogenized again for 5-10 min with PBS with protease inhibitor mix and centrifuged. Collected supernatant was centrifuged at 40000 rpm and 4° C. for 30 min to sediment the cell membranes.
The membranes were resuspended in 25 mM HEPES, 25 mM MgCl2, 1 mM CaCl2, 10% Glycerine for storage in aliquots at −80° C. Membranes were diluted to a concentration of 5 mg/ml (Bradford Assay).
as §1
[^125I]RANTES, Stock: 1825 Ci/mmol, 25 μCi (Bio Trend #A3-AI-676) was solved in 1000 μl assay buffer (100 mM NaCl; 10 mM MgCl2; 50 mM Tris-HCl; 1 mM EDTA; 0.1% BSA, pH 7.6), stored at −20° C.
CHO (Gα16) human CCR5 membrane were solved on ice and adjusted with assay buffer to a concentration of 2.5 μg/15 μl.
Amersham Biosciences PVT-WGA Beads (GE Healthcare; #RPNQ0001) were adjusted with assay buffer to a concentration of 8 mg/ml. For preparation of the membrane-bead-suspension, membranes and beads were incubated for 30 min at RT under rotation with a ratio of 1:2.
Test compounds dissolved in 100% DMSO to a concentration of 10 mM and are further diluted with 100% DMSO to 1 mM. All additional compound dilutions were obtained with assay buffer, final 1% DMSO. 7 μl compound dilution, 45 μl membrane-bead-suspension and 10 μl [^125I]RANTES (ca. 20000 cpm/10 μl) were incubated at RT. Bound radioactivity was determined by scintillation counter after 6 h. Determination of affinity of test compounds (dissociation constant Ki) is calculated by iterative fitting of experimental data using the “easy sys” program, which is based on law of mass action (Schittkowski K. (1994), Numerische Mathematik, Vol. 68, 129-142).

| Compound | Ki [1] [nM] | Ki [2] [nM] |
| --- | --- | --- |
| CO[C@H]1COCC[C@H]1NC1CCN(C(=O)c2nc(C3CCOCC3)nc(N3CCc4cc(C(F)(F)F)ccc4C3)c2C)CC1 [Example 3] | 4 | 700 |
| CO[C@@H]1COCC[C@@H]1NC1CCN(C(=O)c2nc(C3CCOCC3)nc(N3CCc4cc(C(F)(F)F)ccc4C3)c2C)CC1 [Example 4] | 2 | 310 |
| Cc1cc(-c2nc(C(=O)N3CCC(N[C@@H]4CCOC[C@@H]4F)CC3)c(C)c(N3CCc4cc(C(F)(F)F)ccc4C3)n2)no1 [Example 6] | 20 | 17300 |
| Cc1c(C(=O)N2CCC(N[C@@H]3CCOC[C@@H]3F)CC2)nc(C2CCOCC2)nc1N1CCc2ccc(C(F)(F)F)cc2C1 [Example 14] | 3 | 2090 |
| Cc1c(C(=O)N2CCC(N[C@H]3CCOC[C@H]3F)CC2)nc(C2CCOCC2)nc1N1CCc2ccc(C(F)(F)F)cc2C1 [Example 13] | 5 | 1300 |
| CO[C@H]1COCC[C@H]1NC1CCN(C(=O)c2nc(C3CCOCC3)nc(N3CCc4ccc(C(F)(F)F)cc4C3)c2C)CC1 [Example 11] | 0.8 | 430 |
| Cc1cc(-c2nc(C(=O)N3CCC(N[C@H]4CCOC[C@H]4F)CC3)c(C)c(N3CCc4ccc(C(F)(F)F)cc4C3)n2)no1 [Example 27] | 15 | 750 |
| Cc1c(Nc2ccc(Cl)c(Cl)c2)nc(CF)nc1C(=O)N1CCC(NC2CCOCC2F)CC1 (stereo not shown) [Example 19] | 3 | 350 |
| Cc1cc(-c2nc(NC[C@H]3CCC[C@@H](c4ccc(C(F)(F)F)cc4)O3)c(C)c(C(=O)N3CCC(N[C@@H]4CCOC[C@@H]4F)CC3)n2)no1 [Example 24] | 1 | 50 |
| Cc1c(C(=O)N2CCC(N[C@H]3CCOC[C@H]3F)CC2)nc(C2CCOCC2)nc1N1CCc2cc(C(F)(F)F)ccc2C1 [Example 5] | 14 | 4580 |
| CO[C@@H]1COCC[C@@H]1NC1CCN(C(=O)c2nc(C(F)F)nc(N3CCc4ccc(C(F)(F)F)cc4C3)c2C)CC1 [Example 35] | 2 | 160 |
| CO[C@@H]1COCC[C@@H]1NC1CCN(C(=O)c2nc(-c3cc(C)on3)nc(N3CCc4cc(C(F)(F)F)ccc4C3)c2C)CC1 [Example 7] | 8 | 380 |
| Cc1c(NC[C@H]2CCC[C@@H](c3ccc(C(F)(F)F)cc3)O2)nc(C2CCOCC2)nc1C(=O)N1CCC(N[C@H]2CCOC[C@H]2F)CC1 [Example 16] | 1 | 210 |
| CO[C@@H]1COCC[C@@H]1NC1CCN(C(=O)c2nc(CF)nc(Nc3ccc(Cl)c(Cl)c3)c2C)CC1 [Example 20] | 0.6 | 31 |
| CO[C@H]1COCC[C@H]1NC1CCN(C(=O)c2nc(CF)nc(N3CCc4ccc(C(F)(F)F)cc4C3)c2C)CC1 [Example 18] | 5 | 460 |
| Cc1cc(-c2nc(C(=O)N3CCC(N[C@H]4CCOC[C@H]4F)CC3)c(C)c(N3CCc4cc(C(F)(F)F)ccc4C3)n2)no1 [Example 9] | 38 | 3400 |
| Cc1cc(-c2nc(C(=O)N3CCC(N[C@@H]4CCOC[C@@H]4F)CC3)c(C)c(N3CCc4ccc(C(F)(F)F)cc4C3)n2)no1 [Example 28] | 11 | 1350 |
